These results are taken from patent US20060252732A1, “Blood vessel-growth promoter” (priority 2003, published 2006).

In experiment [1] the test system is human umbilical vein endothelial cells (HUVEC). Kind of experiment: Proliferation test on human umbilical vein endothelial cells (HUVEC). It is filed as cell-based. The protocol:
Proliferation Test on Human Umbilical Vein Endothelial Cells (HUVEC) […] After the culture broth was filtered by suction, to a minimum essential medium (MEM) broth containing 1% FBS, acetylsalicylic acid was added at a concentration (0, 0.055, 0.55, 5.5, 55, 555 μM, respectively) and each mixture was cultivated. After 0, 24 and 48 hours the number of alive cells was counted. As a positive control vascular endothelial growth factor (VEGF; Vascular Endothelial Growth Factor-A) (20 ng/mL) was used. In this measurement, Cell Counting Kit-8 (Dojin Chemical Co.) was used.

Experiment [2] concerns human vascular endothelial cells (HUVEC) and fibroblast. In words: Measurement of neo-vascularization ability (tube formation, CD31 staining, Angiogenesis Kit KZ-1000). The class given is cell-based. The protocol:
Measurement of Neo-Vascularization Ability
The tube formation by a mixture-system of human vascular endothelial cells (HUVEC) and fibroblast was investigated by CD31 staining kit (Kurabo Ind.) to be visualized, and be made score by an analytical soft (NIH Image). A broth containing acetylsalicylic (0.5, 5.5, 55 μM; changed every three days) was added to neo-vascularization kit (Angiogenesis Kit KZ-1000; Kurabo Ind.) prepared by mixing human vascular endothelial cells and fibroblast, and the resulting broth was cultivated for 11 days. Then immuno histochemical study was performed by using CD31 staining kit, and the color photo was taken. The picture was analyzed using NIH Image and the amount of the formed tubes was scored as an area to evaluate. As a positive control, vascula endothelial growth factor (VEGF; 10 ng/mL) and as a negative control sramine (100 μM) were used, respectively.

In experiment [3] the test system is Wister female rats. In words: Neo-vascularization test using rats (subcutaneous urethane sponge, carmine dye). It is filed as in vivo, rat. The method, then:
Neo-Vascularization Test Using Rats
Wister female rats (7 weeks old; n=6) were anesthetized with ether, and a urethane sponge (diameter: 8 mm) previously permeating a drug was inserted in subcutaneous tissue of right shoulder. As a test drug, acetylsalicylic acid (2 mg) and as a positive control retinoid (0.5 mg) were administered, respectively. Four days later after insertion of the sponge, 5% gelatin solution containing 5% carmine dye kept at 37° C. was administered under ether anesthesia in tail vein of the rat. After injection, the rats in suspended animation were left at 4° C. for 2 hours, and the gelatin solution containing carmine dye distributed in blood vessel was solidified. After butcher of the rats, the sponge with granulation tissue was extracted and the dye therein was extracted. Absorbancy at 530 nm was measured to calculate the amount of the carmine dye.

As for VEGF, the “Change of the number of HUVEC, Relative absorvancy” value (“Change … Relative absorvancy” for short) is reported as 1.003 in experiment [1] (20 ng/mL (positive control), after 0 hour); 2.041 in experiment [1] (20 ng/mL (positive control), after 24 hours); 1.889 in experiment [1] (20 ng/mL (positive control), after 48 hours). Also, the “Neo-vascularization ability, Relative area After 11 days” value in experiment [2] (10 ng/mL (positive control)) is recorded as 1.71.
As for `CC(=O)Oc1ccccc1C(=O)O` [Acetylsalicylic acid, acetylsalicylic acid], the “Change … Relative absorvancy” value in experiment [1] (0.055 μM drug, after 0 hour) came out at 1.102; in experiment [1] (0.055 μM drug, after 24 hours), 1.252; in experiment [1] (0.055 μM drug, after 48 hours), 1.303; in experiment [1] (0.55 μM drug, after 0 hour), 1.144; in experiment [1] (0.55 μM drug, after 24 hours), 2.001; in experiment [1] (0.55 μM drug, after 48 hours), 1.709. The “Change … Relative absorvancy” value in experiment [1] (5.5 μM drug, after 0 hour) came out at 1.084; in experiment [1] (5.5 μM drug, after 24 hours), 1.811; in experiment [1] (5.5 μM drug, after 48 hours), 1.575; in experiment [1] (55 μM drug, after 0 hour), 1.107; in experiment [1] (55 μM drug, after 24 hours), 1.754; in experiment [1] (55 μM drug, after 48 hours) it was 1.475. For the same molecule, the “Change … Relative absorvancy” value is given as 1.017 in experiment [1] (555 μM drug, after 0 hour); 1.044 in experiment [1] (555 μM drug, after 24 hours); 0.699 in experiment [1] (555 μM drug, after 48 hours). Besides, in experiment [1] (added in more than 0.055 μM), the “Proliferation promoting activity of HUVEC” value is on record as “proliferation promoting activity of HUVEC was confirmed”. Besides, in experiment [1] (added in more than 555 μM), the “Proliferation promoting effect on HUVEC” value is on record as “proliferation promoting effect was not recognized or was even depressed”. In experiment [2], the Tube-formation promoting activity entry was “showed tube-formation promoting activity”. The “Neo-vascularization ability, Relative area After 11 days” value stood at 1.17 in experiment [2] (5.5 μM) and 1.08 in experiment [2] (55 μM). For the same molecule, the “Neo-vascularization promoting activity in vivo” value in experiment [3] was “neo-vascularization promoting activity was shown”. Besides, in experiment [3] (2 mg in sponge, subcutaneous, 4 days after insertion), the “Amount of carmine dye” value was 16.0 ± 4.2 µg/mL.
Turning to `Cc1ccc(C(=O)Nc2ccc(S(=O)(=O)O)c3cc(S(=O)(=O)O)cc(S(=O)(=O)O)c23)cc1NC(=O)c1cccc(NC(=O)Nc2cccc(C(=O)Nc3cc(C(=O)Nc4ccc(S(=O)(=O)O)c5cc(S(=O)(=O)O)cc(S(=O)(=O)O)c45)ccc3C)c2)c1` [Sramine, sramine], the “Neo-vascularization ability, Relative area After 11 days” value in experiment [2] (100 μM (negative control)) is 0.04.
